Tests used:
Type in all cases: in vivo
ATCC 75295 rice line = assay: Field plot test with AHAS-inhibiting herbicides, ATCC 75295
Procedure: The resistance of these plants to several other AHAS-inhibiting herbicides was also tested. Nine-foot-long field plots were planted with seven rows of rice per plot. The test included nine check rice varieties, and the ATCC 75295 rice line. A shielded spray boom was used to apply herbicide, spraying six of the seven rows in each plot. The four herbicides used were Pursuit (imazethapyr: (±)-2-[4,5-dihydro-4-methyl-4-(1-methylethyl)-5-oxo-1H-imidazol-2-yl]-5-ethyl-3-pyridinecarboxylic acid); Scepter (imazaquin: 2-[4,5-dihydro-4-methyl-4-(1-methylethyl)-5-oxo-1H-imidazol-2-yl]-3-quinolinecarboxylic acid); Accent (nicosulfuron: 2-(((((4,6-dimethoxypyrimidin-2-yl)aminocarbonyl)) aminosulfonyl))-N,N-dimethyl-3-pyridinecarboxamide); and Beacon (primisulfuron: 3-[4,6-bis(difluoromethoxy)-pyrimidin-2-yl]-1-(2-methoxycarbonylphenylsulfonyl)urea). The herbicides were applied to two replicate plots for each herbicide when the rice was at the three-leaf stage of maturity. Two replicate plots of each check variety and of the resistant line were left unsprayed as controls. The Accent treatment used 0.67 ounce of product (0.50 ounce active ingredient) per acre, with 0.25% nonionic surfactant. The Pursuit treatment used four ounces of product (1.00 ounce active ingredient) per acre, with 0.25% nonionic surfactant. The Scepter treatment used one pint of product (3.00 ounces active ingredient) per acre, with 0.25% nonionic surfactant. The Beacon treatment used 0.76 ounce of product (0.57 ounce active ingredient) per acre, with 0.25% nonionic surfactant. […] A similar test with the same rice varieties and the ATCC 75295 line was conducted at the five-leaf stage of development (i.e., plants fifteen days older than in the test described above), using Accent and Pursuit at the rates given above. […] The ATCC 75295 line was resistant only when herbicide was applied post-emergence.

[1] = test system: progeny of the mutant rice plant (ATCC 97523); assay: Subsequent greenhouse and field testing of progeny of the surviving plant; conditions: herbicides applied either pre-emergence or post-emergence
Description: (Imazamox is sold by American Cyanamid under the trade name Raptor, and has as active ingredient (+)-5-methoxymethyl-2-(4-isopropyl-4-methyl-5-oxo-2-imidazolin-2-yl) nicotinic acid. Imazameth is sold by American Cyanamid under the trade name Cadre, and has as active ingredient (±)-2-[4,5-dihydro-4-methyl-4-(1-methyl-ethyl)-5-oxo-1H-imidazol-2-yl]- 5-methyl-3-pyridinecarboxylicacid;alternatechemicalname (±)-2-(4-isopropyl-4-methyl-5-oxo-2-imidazolin-2-yl)-5-methylnicotinic acid). Imazapyr is sold by American Cyanamid under the trade name Arsenal, and has active ingredient 2-[4,5-dihydro-4-methyl-4-(1-methylethyl)-5-oxo-1H-imidazol-2-yl]-3-pyridinecarboxylic acid) This line is resistant to herbicides applied either pre-emergence or post-emergence.

[2] = test system: mutagenised rice seedlings of ten rice varieties; assay: Field screen of mutagenised rice seedlings, all other plants; conditions: 2X treatment: nicosulfuron 0.063 lb a.i. per acre, imazethapyr 0.125 lb a.i. per acre; 0.25% non-ionic surfactant; 3-4 leaf stage; about four weeks later
Description: The second resistance mechanism resulted from inducing mutations in seeds of each of ten rice varieties. Mutations were induced by exposure either to gamma rays or to the chemical mutagen ethyl methanesulfonate (EMS). Ten-pound lots of seed of each variety were subjected to 25 k-rad of gamma irradiation from a Cobalt-60 source at the Nuclear Science Center, Louisiana State University, Baton Rouge, La. prior to planting. An additional ten pounds of seed of each variety was divided into three equal portions; and each portion was soaked for 16 hours in either 0.1%, 0.5%, or 1% EMS immediately prior to planting. Several hundred pounds of seed were harvested from plants grown from the seeds subjected to these mutagenic treatments.
The following spring the harvested seed was planted in strips in a field planting occupying a total of about three acres. At the 3-4 leaf stage of seedling development, herbicides were applied to screen for herbicide-resistant mutants. Half of the seedlings of each variety were sprayed with a 2X treatment of nicosulfuron, and half were sprayed with a 2X treatment of imazethapyr, in both cases by a tractor-mounted sprayer. Nicosulfuron was applied at the rate of 0.063 lb active ingredient (a.i.) per acre, and imazethapyr was applied at 0.125 lb a.i. per acre. Non-ionic surfactant (0.25%) was added to each spray solution. […]

[3] = subsequent tests (data not shown)
[4] = five-leaf stage (plants fifteen days older), same rates as in the three-leaf test
[5] = three-leaf stage, per acre a.i.: Accent 0.50 ounce, Pursuit 1.00 ounce, Scepter 3.00 ounces, Beacon 0.57 ounce, 0.25% nonionic surfactant

Compound	Resistance of the rice line (in words) (ATCC 75295 rice line; [3])	Resistance of the rice line (in words) [1]	Resistance of the rice line (in words) (ATCC 75295 rice line; [4])	Resistance of the rice line (in words) (ATCC 75295 rice line; [5])	Symptoms of injury (in words) [2]
Cc1cnc(C2=NC(C)(C(C)C)C(=O)N2)c(C(=O)O)c1 (racemic) [imazameth, (±)-2-[4,5-dihydro-4-methyl-4-(1-methyl-ethyl)-5-oxo-1H-imidazol-2-yl]-5-methyl-3-pyridinecarboxylicacid]	exhibited resistance	resistance			
COCc1cnc(C2=NC(C)(C(C)C)C(=O)N2)c(C(=O)O)c1 (single isomer, unassigned; (+)) [imazamox, (+)-5-methoxymethyl-2-(4-isopropyl-4-methyl-5-oxo-2-imidazolin-2-yl) nicotinic acid]		resistance			
CC(C)C1(C)N=C(c2ncccc2C(=O)O)NC1=O (stereo not shown) [imazapyr, 2-[4,5-dihydro-4-methyl-4-(1-methylethyl)-5-oxo-1H-imidazol-2-yl]-3-pyridinecarboxylic acid]	exhibited resistance	resistance			
CC(C)C1(C)N=C(c2nc3ccccc3cc2C(=O)O)NC1=O (stereo not shown) [imazaquin, 2-[4,5-dihydro-4-methyl-4-(1-methylethyl)-5-oxo-1H-imidazol-2-yl]-3-quinolinecarboxylic acid]		resistance	good resistance	good resistance	
COc1cc(OC)nc(NC(=O)NS(=O)(=O)c2ncccc2C(=O)N(C)C)n1 [nicosulfuron, 2-(((((4,6-dimethoxypyrimidin-2-yl)aminocarbonyl))aminosulfonyl))-N,N-dimethyl-3-pyridinecarboxamide]		resistance	excellent resistance	excellent resistance	either severely injured or dead
COC(=O)c1ccccc1S(=O)(=O)NC(=O)Nc1nc(OC(F)F)cc(OC(F)F)n1 [primisulfuron, 3-[4,6-bis(difluoromethoxy)-pyrimidin-2-yl]-1-(2-methoxycarbonylphenylsulfonyl)urea]				lower, but still significantly greater than that of the check rice varieties	

Source: US5736629A, “Herbicide resistant rice” (priority 1997, dated 1998)
